For 1 compound, IC50 results are on record in article PMC6109596 (Cancer letters, 2018).

The assay concerns the target ABCB1 (P-glycoprotein/MDR1) (Homo sapiens, UniProt P08183). Description: biochemical.

Chain of ABCB1 (P-glycoprotein/MDR1) (P08183 whole entry): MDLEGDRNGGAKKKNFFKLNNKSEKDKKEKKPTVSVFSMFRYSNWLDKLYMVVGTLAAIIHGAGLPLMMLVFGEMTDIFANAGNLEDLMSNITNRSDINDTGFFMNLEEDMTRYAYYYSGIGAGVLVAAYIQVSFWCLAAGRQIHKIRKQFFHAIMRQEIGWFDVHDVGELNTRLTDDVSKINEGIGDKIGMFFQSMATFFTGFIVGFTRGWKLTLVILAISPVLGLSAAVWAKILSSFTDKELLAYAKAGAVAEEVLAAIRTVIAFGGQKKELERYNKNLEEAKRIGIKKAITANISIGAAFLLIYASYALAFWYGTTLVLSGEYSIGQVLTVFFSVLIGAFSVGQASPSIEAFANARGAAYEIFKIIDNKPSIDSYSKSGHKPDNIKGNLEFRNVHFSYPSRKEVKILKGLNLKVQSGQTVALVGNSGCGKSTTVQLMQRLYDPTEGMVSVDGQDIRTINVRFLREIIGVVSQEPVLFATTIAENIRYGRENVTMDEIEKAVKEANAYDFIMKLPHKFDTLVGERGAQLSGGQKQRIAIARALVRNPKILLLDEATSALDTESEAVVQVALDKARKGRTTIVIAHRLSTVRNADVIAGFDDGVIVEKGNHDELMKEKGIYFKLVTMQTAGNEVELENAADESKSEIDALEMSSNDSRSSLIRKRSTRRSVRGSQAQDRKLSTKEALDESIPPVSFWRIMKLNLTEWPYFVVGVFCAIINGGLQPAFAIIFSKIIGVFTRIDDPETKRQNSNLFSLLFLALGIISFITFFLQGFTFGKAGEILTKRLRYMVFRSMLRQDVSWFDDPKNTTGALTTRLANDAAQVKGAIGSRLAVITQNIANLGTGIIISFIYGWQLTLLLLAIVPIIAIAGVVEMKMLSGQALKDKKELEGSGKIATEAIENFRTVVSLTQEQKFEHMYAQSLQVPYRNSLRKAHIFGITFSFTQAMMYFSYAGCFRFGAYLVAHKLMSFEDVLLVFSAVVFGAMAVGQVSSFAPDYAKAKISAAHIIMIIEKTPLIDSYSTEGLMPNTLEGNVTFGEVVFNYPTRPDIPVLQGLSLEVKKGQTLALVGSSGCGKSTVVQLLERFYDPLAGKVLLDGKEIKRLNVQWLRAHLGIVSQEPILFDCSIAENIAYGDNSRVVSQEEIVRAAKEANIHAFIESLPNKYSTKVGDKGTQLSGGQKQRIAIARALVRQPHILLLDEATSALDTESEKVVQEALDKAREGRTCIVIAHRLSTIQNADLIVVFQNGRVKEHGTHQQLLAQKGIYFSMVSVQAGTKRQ

A word on the IC50: it is the point on the concentration scale where inhibition reaches its midpoint. A low value points to greater potency in that assay. Consider `N#Cc1cc2c(OCC(O)CN3CCN(C(c4ccccc4)c4ccccc4)CC3)cccc2[nH]1` (racemic) [DPI-201106], for which the IC50 was around 500 nM.
